This note sets out measurements from the supplement of paper PMC11424490.

The test system of experiment [1] is NCI-H2122. Briefly: combination cScore with adagrasib (Bliss gap around IC50) (%PoC); higher = stronger additive effect. As to the method:
(§1)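 Combination screen of 179 inhibitors with the KRAS G12C inhibitor adagrasib (MRTX849) in dose matrices, CellTiter-Glo readout in NCI-H2122 (72 h), SW837 (144 h) and NCI-H358 cells. The cScore is the mean Bliss-independence gap (expected minus observed viability, in %PoC) over a 3x3 field around the IC50s of both drugs. Positive means additive, and >~10 is stated as clear additive.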

The test system of experiment [2] is SW837. Described as above. How it is done:
as §1

With `CCOC(=O)CCNc1cc(N2CCc3ccccc3CC2)nc(-c2ccccn2)n1` [GSK-J4] + C=C(F)C(=O)N1CCN(c2nc(OC[C@@H]3CCCN3C)nc3c2CCN(c2cccc4cccc(Cl)c24)C3)C[C@@H]1CC#N [adagrasib], the “combination cScore with adagrasib” value in experiment [1] was determined as 17.9; in experiment [2], 0.593.

Take `CC(C)c1cc(-c2n[nH]c(=O)n2-c2ccc3c(ccn3C)c2)c(O)cc1O` [Ganetespib] + C=C(F)C(=O)N1CCN(c2nc(OC[C@@H]3CCCN3C)nc3c2CCN(c2cccc4cccc(Cl)c24)C3)C[C@@H]1CC#N [adagrasib]: the “combination cScore with adagrasib” value in experiment [1] is -3.01; in experiment [2], 4.14.

In the case of `Nc1ccn([C@@H]2O[C@H](CO)[C@@H](O)C2(F)F)c(=O)n1` [Gemcitabine] + C=C(F)C(=O)N1CCN(c2nc(OC[C@@H]3CCCN3C)nc3c2CCN(c2cccc4cccc(Cl)c24)C3)C[C@@H]1CC#N [adagrasib], the “combination cScore with adagrasib” value in experiment [1] was -4.78; in experiment [2], -2.8.

In the case of `COc1ncc(-c2nc3c(n2C(C)C)[C@H](c2ccc(Cl)cc2)N(c2cc(Cl)cn(C)c2=O)C3=O)c(OC)n1` [HDM-201] + C=C(F)C(=O)N1CCN(c2nc(OC[C@@H]3CCCN3C)nc3c2CCN(c2cccc4cccc(Cl)c24)C3)C[C@@H]1CC#N [adagrasib], the “combination cScore with adagrasib” value in experiment [1] was determined as 1.48; in experiment [2], 3.06.

Turning to `CC(=O)[C@]1(O)Cc2c(O)c3c(c(O)c2[C@@H](O[C@H]2C[C@H](N)[C@H](O)[C@H](C)O2)C1)C(=O)c1ccccc1C3=O` [Idarubicin] + C=C(F)C(=O)N1CCN(c2nc(OC[C@@H]3CCCN3C)nc3c2CCN(c2cccc4cccc(Cl)c24)C3)C[C@@H]1CC#N [adagrasib], the “combination cScore with adagrasib” value amounted to 4.03 in experiment [1] and 2.73 in experiment [2].

Take `Cc1ccc(NC(=O)c2ccc(CN3CCN(C)CC3)cc2)cc1Nc1nccc(-c2cccnc2)n1` [Imatinib] + C=C(F)C(=O)N1CCN(c2nc(OC[C@@H]3CCCN3C)nc3c2CCN(c2cccc4cccc(Cl)c24)C3)C[C@@H]1CC#N [adagrasib]: the “combination cScore with adagrasib” value is -0.92 in experiment [1] and -2.11 in experiment [2].

Take `CC(C)NC[C@@H](C(=O)N1CCN(c2ncnc3c2[C@H](C)C[C@H]3O)CC1)c1ccc(Cl)cc1` [Ipatasertib] + C=C(F)C(=O)N1CCN(c2nc(OC[C@@H]3CCCN3C)nc3c2CCN(c2cccc4cccc(Cl)c24)C3)C[C@@H]1CC#N [adagrasib]: the entries for the “combination cScore with adagrasib” value in experiment [1] and in experiment [2] were 1.14 and 6.57, respectively.

For the compound `O=C(/C=C\n1cnc(-c2cc(C(F)(F)F)cc(C(F)(F)F)c2)n1)NNc1cnccn1` [KPT-330] + C=C(F)C(=O)N1CCN(c2nc(OC[C@@H]3CCCN3C)nc3c2CCN(c2cccc4cccc(Cl)c24)C3)C[C@@H]1CC#N [adagrasib], the “combination cScore with adagrasib” value came out at 8.01 in experiment [1] and 3.48 in experiment [2].

Turning to `CN[C@@H](C)C(=O)N[C@H](C(=O)N1CCC[C@H]1c1nc(C(=O)c2ccc(F)cc2)cs1)C1CCCCC1` [LCL161] + C=C(F)C(=O)N1CCN(c2nc(OC[C@@H]3CCCN3C)nc3c2CCN(c2cccc4cccc(Cl)c24)C3)C[C@@H]1CC#N [adagrasib], the “combination cScore with adagrasib” value in experiment [1] was -1.85; in experiment [2], 1.58.

As for `COc1ccccc1-c1cc(Nc2cccc(CS(N)(=O)=O)c2)ncn1` [LDC-067] + C=C(F)C(=O)N1CCN(c2nc(OC[C@@H]3CCCN3C)nc3c2CCN(c2cccc4cccc(Cl)c24)C3)C[C@@H]1CC#N [adagrasib], the “combination cScore with adagrasib” value in experiment [1] is 5.11; in experiment [2], 3.49.

For the compound `Cc1cn(CCN2CCN(c3ccccc3-c3cc(C#N)cc(C(=O)NCCCN4CCCC4)c3)CC2)c2ccccc12` [LLY-507] + C=C(F)C(=O)N1CCN(c2nc(OC[C@@H]3CCCN3C)nc3c2CCN(c2cccc4cccc(Cl)c24)C3)C[C@@H]1CC#N [adagrasib], the “combination cScore with adagrasib” value in experiment [1] is 12.6; in experiment [2] it was 20.3.

Consider `Cc1ccc(NC(=O)c2ccnc(C(F)(F)F)c2)cc1-c1cc(OCCO)nc(N2CCOCC2)c1` [LXH-254] + C=C(F)C(=O)N1CCN(c2nc(OC[C@@H]3CCCN3C)nc3c2CCN(c2cccc4cccc(Cl)c24)C3)C[C@@H]1CC#N [adagrasib], for which the “combination cScore with adagrasib” value in experiment [1] was -3.51; in experiment [2], 0.67.

On to `Nc1cccc2c1CN(C1CCC(=O)NC1=O)C2=O` (centres undefined) [Lenalidomide] + C=C(F)C(=O)N1CCN(c2nc(OC[C@@H]3CCCN3C)nc3c2CCN(c2cccc4cccc(Cl)c24)C3)C[C@@H]1CC#N [adagrasib], for which the “combination cScore with adagrasib” value in experiment [1] was -12.8; in experiment [2], -3.14.

Regarding `O=C(O)c1nn(Cc2ccc(Cl)cc2Cl)c2ccccc12` [Lonidamine] + C=C(F)C(=O)N1CCN(c2nc(OC[C@@H]3CCCN3C)nc3c2CCN(c2cccc4cccc(Cl)c24)C3)C[C@@H]1CC#N [adagrasib], the “combination cScore with adagrasib” value in experiment [1] was -1.92; in experiment [2], -1.95.

`CC[C@H](C)C(=O)O[C@H]1C[C@@H](C)C=C2C=C[C@H](C)[C@H](CC[C@@H]3C[C@@H](O)CC(=O)O3)[C@H]21` [Lovastatin] + C=C(F)C(=O)N1CCN(c2nc(OC[C@@H]3CCCN3C)nc3c2CCN(c2cccc4cccc(Cl)c24)C3)C[C@@H]1CC#N [adagrasib]: the “combination cScore with adagrasib” value is -4.64 in experiment [1] and 1.03 in experiment [2].

Consider `COc1cc(Nc2ncc3c(n2)-c2ccc(Cl)cc2C(c2c(F)cccc2OC)=NC3)ccc1C(=O)O` [MLN8237] + C=C(F)C(=O)N1CCN(c2nc(OC[C@@H]3CCCN3C)nc3c2CCN(c2cccc4cccc(Cl)c24)C3)C[C@@H]1CC#N [adagrasib], for which the “combination cScore with adagrasib” value in experiment [1] is -0.97; in experiment [2] it was 4.72.

`Cc1ccc(NC(=O)c2ccc(CN3CCN(C)CC3)cc2)cc1Nc1nc(-c2cccnc2)cs1` [Masitinib] + C=C(F)C(=O)N1CCN(c2nc(OC[C@@H]3CCCN3C)nc3c2CCN(c2cccc4cccc(Cl)c24)C3)C[C@@H]1CC#N [adagrasib]: the “combination cScore with adagrasib” value in experiment [1] is 5.2; in experiment [2] it was -2.55.

In the case of `C[C@H](Cc1ccc(O)c(O)c1)[C@@H](C)Cc1ccc(O)c(O)c1` [Masoprocol] + C=C(F)C(=O)N1CCN(c2nc(OC[C@@H]3CCCN3C)nc3c2CCN(c2cccc4cccc(Cl)c24)C3)C[C@@H]1CC#N [adagrasib], the figures for the “combination cScore with adagrasib” value in experiment [1] and in experiment [2] were 1.34 and -3.46, respectively.

On to `N[C@@H](Cc1ccc(N(CCCl)CCCl)cc1)C(=O)O` [Melphalan] + C=C(F)C(=O)N1CCN(c2nc(OC[C@@H]3CCCN3C)nc3c2CCN(c2cccc4cccc(Cl)c24)C3)C[C@@H]1CC#N [adagrasib], for which the “combination cScore with adagrasib” value was 3.55 in experiment [1] and -0.68 in experiment [2].

With `CN(C)C(=N)NC(=N)N` [Metformin] + C=C(F)C(=O)N1CCN(c2nc(OC[C@@H]3CCCN3C)nc3c2CCN(c2cccc4cccc(Cl)c24)C3)C[C@@H]1CC#N [adagrasib], the “combination cScore with adagrasib” value in experiment [1] is -8.41; in experiment [2] it was 1.92.

As for `CN(Cc1cnc2nc(N)nc(N)c2n1)c1ccc(C(=O)N[C@@H](CCC(=O)O)C(=O)O)cc1` [Methotrexate] + C=C(F)C(=O)N1CCN(c2nc(OC[C@@H]3CCCN3C)nc3c2CCN(c2cccc4cccc(Cl)c24)C3)C[C@@H]1CC#N [adagrasib], the “combination cScore with adagrasib” value is -2.65 in experiment [1] and -8.99 in experiment [2].

With `CO[C@@]12[C@H](COC(N)=O)C3=C(C(=O)C(C)=C(N)C3=O)N1C[C@@H]1N[C@@H]12` [Mitomycin C] + C=C(F)C(=O)N1CCN(c2nc(OC[C@@H]3CCCN3C)nc3c2CCN(c2cccc4cccc(Cl)c24)C3)C[C@@H]1CC#N [adagrasib], the “combination cScore with adagrasib” value in experiment [1] was 0.77; in experiment [2] it was -3.24.

As to `CCc1cccc(CC)c1NC(=O)c1nn(C)c2c1CCc1cnc(Nc3ccc(C(=O)NC4CCN(C)CC4)cc3OC(F)(F)F)nc1-2` [NMS-P715] + C=C(F)C(=O)N1CCN(c2nc(OC[C@@H]3CCCN3C)nc3c2CCN(c2cccc4cccc(Cl)c24)C3)C[C@@H]1CC#N [adagrasib], the “combination cScore with adagrasib” value in experiment [1] is -2.37; in experiment [2], 2.41.

On to `O=c1cc(N2CCOCC2)oc2c(-c3cccc4c3sc3ccccc34)cccc12` [NU-7441] + C=C(F)C(=O)N1CCN(c2nc(OC[C@@H]3CCCN3C)nc3c2CCN(c2cccc4cccc(Cl)c24)C3)C[C@@H]1CC#N [adagrasib], for which the entries for the “combination cScore with adagrasib” value in experiment [1] and in experiment [2] were 6.81 and 11.6, respectively.

As to `Cn1c(=O)n(-c2ccc(C(C)(C)C#N)cc2)c2c3cc(-c4cnc5ccccc5c4)ccc3ncc21` [NVP-BEZ235] + C=C(F)C(=O)N1CCN(c2nc(OC[C@@H]3CCCN3C)nc3c2CCN(c2cccc4cccc(Cl)c24)C3)C[C@@H]1CC#N [adagrasib], the “combination cScore with adagrasib” value came to 3.55 in experiment [1] and 6.19 in experiment [2].

On to `Cc1cn(-c2cc(NC(=O)c3ccc(C)c(Nc4nccc(-c5cccnc5)n4)c3)cc(C(F)(F)F)c2)cn1` [Nilotinib] + C=C(F)C(=O)N1CCN(c2nc(OC[C@@H]3CCCN3C)nc3c2CCN(c2cccc4cccc(Cl)c24)C3)C[C@@H]1CC#N [adagrasib], for which the entries for the “combination cScore with adagrasib” value in experiment [1] and in experiment [2] were 10.6 and 9.6, respectively.

As for `COC(=O)c1ccc2c(c1)NC(=O)/C2=C(\Nc1ccc(N(C)C(=O)CN2CCN(C)CC2)cc1)c1ccccc1` [Nintedanib] + C=C(F)C(=O)N1CCN(c2nc(OC[C@@H]3CCCN3C)nc3c2CCN(c2cccc4cccc(Cl)c24)C3)C[C@@H]1CC#N [adagrasib], the entries for the “combination cScore with adagrasib” value in experiment [1] and in experiment [2] were 7.6 and 4.49, respectively.
